Laboratory results as given in patent US9023789B2, “Amylin analogs and pharmaceutical compositions thereof” (Novo Nordisk A/S, priority 2012, dated 2015).
≈ marks a conversion by molar mass, not a printed value. Where two headings read alike, the source gives them in different places. Numbered stars: 1 amine (or outer) side, 2 acyl side, 3 side chain; on linkers, the order of the positions; unused ones are H or OH. Bridge positions count the residues as written; N and C are the ends. Side chains are listed from the residue outwards. Peptide text beside a SMILES is read from it. * marks the point of attachment. C20 diacid = O=C(O)CCCCCCCCCCCCCCCCCCC(=O)*; γGlu = O=C(O)[C@H](CCC(=O)[*:2])N[*:1]; AEEA = NCCOCCOCC(=O)O

Assay: ASSAY (IV) determination of solubility
Assay type: physicochemical
Outline: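 Dissolve polypeptide in water ([…] stock); combine 1:1 with each 100 mM buffer (glycylglycine pH 3.0/4.0/5.0; bistrispropane pH 6.0/6.5/7.0/7.5/8.0); hold 18 hours at room temperature; centrifuge; quantify polypeptide by UPLC.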

[1] = bistrispropane buffer, pH 6.5, read-out: Solubility pH 6.5 Concentration
[2] = bistrispropane buffer, pH 7.5, read-out: Solubility pH 7.5 Concentration
[3] = bistrispropane buffer, pH 6.0, read-out: Solubility pH 6.0 Concentration
[4] = bistrispropane buffer, pH 7.0, read-out: Solubility pH 7.0 Concentration
[5] = bistrispropane buffer, pH 8.0, read-out: Solubility pH 8.0 Concentration
[6] = glycylglycine buffer, pH 3.0, read-out: Solubility pH 3.0 Concentration
[7] = glycylglycine buffer, pH 4.0, read-out: Solubility pH 4.0 Concentration
[8] = glycylglycine buffer, pH 5.0, read-out: Solubility pH 5.0 Concentration

Compound	solubility at 18 h [1]	solubility at 18 h [2]	solubility at 18 h [3]	solubility at 18 h [4]	solubility at 18 h [5]	solubility at 18 h [6]	solubility at 18 h [7]	solubility at 18 h [8]
CC[C@H](C)[C@H](NC(=O)[C@H](C)NC(=O)CNC(=O)[C@H](Cc1ccccc1)NC(=O)[C@H](CC(N)=O)NC(=O)[C@@H]1CCCN1C(=O)[C@H](CO)NC(=O)[C@H](CO)NC(=O)[C@H](Cc1c[nH]cn1)NC(=O)[C@H](CCCNC(=N)N)NC(=O)[C@H](CC(C)C)NC(=O)[C@H](Cc1ccccc1)NC(=O)[C@H](CC(N)=O)NC(=O)[C@H](C)NC(=O)[C@H](CC(C)C)NC(=O)[C@H](CCCNC(=N)N)NC(=O)[C@H](CCC(N)=O)NC(=O)[C@@H](NC(=O)[C@H](C)NC(=O)[C@@H]1CSSC[C@H](NC(=O)[C@H](CCCCN)NC(=O)CC[C@H](NC(=O)CCCCCCCCCCCCCCCCCCC(=O)O)C(=O)O)C(=O)N[C@@H](CC(N)=O)C(=O)N[C@@H]([C@@H](C)O)C(=O)N[C@@H](C)C(=O)N[C@@H]([C@@H](C)O)C(=O)N1)[C@@H](C)O)C(=O)N1CCC[C@H]1C(=O)N[C@@H](CO)C(=O)N[C@@H](CO)C(=O)N[C@H](C(=O)N[C@@H](CC(N)=O)C(=O)N[C@H](C(=O)NCC(=O)N[C@@H](Cc1c[nH]cn1)C(=O)N[C@@H](CC(N)=O)C(=O)N[C@H](C(=O)N[C@@H](Cc1ccc(O)cc1)C(N)=O)[C@@H](C)O)C(C)C)[C@@H](C)O [Example 40]	≥ 200 µM	≥ 200 µM	≥ 200 µM	≥ 200 µM	≥ 200 µM	≥ 200 µM	≥ 200 µM	≥ 200 µM
CC[C@H](C)[C@H](NC(=O)[C@H](C)NC(=O)CNC(=O)[C@H](Cc1ccccc1)NC(=O)[C@H](CC(N)=O)NC(=O)[C@@H]1CCCN1C(=O)[C@H](CO)NC(=O)[C@H](CO)NC(=O)[C@H](Cc1c[nH]cn1)NC(=O)[C@H](CCCNC(=N)N)NC(=O)[C@H](CC(C)C)NC(=O)[C@H](Cc1ccccc1)NC(=O)[C@H](CC(N)=O)NC(=O)[C@H](C)NC(=O)[C@H](CC(C)C)NC(=O)[C@H](CCCNC(=N)N)NC(=O)[C@H](CCC(N)=O)NC(=O)[C@@H](NC(=O)[C@H](C)NC(=O)[C@@H]1CSSC[C@H](NC(=O)[C@H](CCCNC(=N)N)NC(=O)[C@@H](N)CCCCNC(=O)COCCOCCNC(=O)CC[C@H](NC(=O)CCCCCCCCCCCCCCCCCCC(=O)O)C(=O)O)C(=O)N[C@@H](CC(N)=O)C(=O)N[C@@H]([C@@H](C)O)C(=O)N[C@@H](C)C(=O)N[C@@H]([C@@H](C)O)C(=O)N1)[C@@H](C)O)C(=O)N1CCC[C@H]1C(=O)N[C@@H](CO)C(=O)N[C@@H](CO)C(=O)N[C@H](C(=O)N[C@@H](CC(N)=O)C(=O)N[C@H](C(=O)NCC(=O)N[C@@H](CO)C(=O)N[C@@H](Cc1c[nH]cn1)C(=O)N[C@H](C(=O)N[C@@H](Cc1ccc(O)cc1)C(N)=O)[C@@H](C)O)C(C)C)[C@@H](C)O [Example 45] (H-K([AEEA-γGlu-C20 diacid])RCNTATCATQRLANFLRHSSPNFGAIPSSTNVGSHTY-NH2; disulfide 3-8 (inferred))	≥ 200 µM	≥ 200 µM	≥ 200 µM	≥ 200 µM	110 µM (≈ 518 µg/mL)	≥ 200 µM	≥ 200 µM	≥ 200 µM
CC[C@H](C)[C@H](NC(=O)[C@H](C)NC(=O)CNC(=O)[C@H](Cc1ccccc1)NC(=O)[C@H](CC(N)=O)NC(=O)[C@@H]1CCCN1C(=O)[C@H](CO)NC(=O)[C@H](CO)NC(=O)[C@H](Cc1c[nH]cn1)NC(=O)[C@H](CCCNC(=N)N)NC(=O)[C@H](CC(C)C)NC(=O)[C@H](Cc1ccccc1)NC(=O)[C@H](Cc1c[nH]cn1)NC(=O)[C@H](C)NC(=O)[C@H](CC(C)C)NC(=O)[C@H](CCCNC(=N)N)NC(=O)[C@H](CCC(N)=O)NC(=O)[C@@H](NC(=O)[C@H](C)NC(=O)[C@@H]1CSSC[C@H](NC(=O)[C@@H](N)CCCCNC(=O)COCCOCCNC(=O)CC[C@H](NC(=O)CCCCCCCCCCCCCCCCCCC(=O)O)C(=O)O)C(=O)N[C@@H](CC(N)=O)C(=O)N[C@@H]([C@@H](C)O)C(=O)N[C@@H](C)C(=O)N[C@@H]([C@@H](C)O)C(=O)N1)[C@@H](C)O)C(=O)N1CCC[C@H]1C(=O)N[C@@H](CO)C(=O)N[C@@H](CO)C(=O)N[C@H](C(=O)N1CCC[C@H]1C(=O)N[C@H](C(=O)NCC(=O)N[C@@H](CO)C(=O)N[C@@H](CC(N)=O)C(=O)N[C@H](C(=O)N[C@@H](Cc1ccc(O)cc1)C(N)=O)[C@@H](C)O)C(C)C)[C@@H](C)O [Example 61] (H-K([AEEA-γGlu-C20 diacid])CNTATCATQRLAHFLRHSSPNFGAIPSSTPVGSNTY-NH2; disulfide 2-7 (inferred))	≥ 200 µM	≥ 200 µM	≥ 200 µM	≥ 200 µM	153 µM (≈ 693 µg/mL)	≥ 200 µM	≥ 200 µM	≥ 200 µM
CC[C@H](C)[C@H](NC(=O)[C@H](C)NC(=O)CNC(=O)[C@H](Cc1ccccc1)NC(=O)[C@H](CC(N)=O)NC(=O)[C@@H]1CCCN1C(=O)[C@H](CO)NC(=O)[C@H](CO)NC(=O)[C@H](Cc1c[nH]cn1)NC(=O)[C@H](CCCNC(=N)N)NC(=O)[C@H](CC(C)C)NC(=O)[C@H](Cc1ccccc1)NC(=O)[C@H](Cc1c[nH]cn1)NC(=O)[C@H](C)NC(=O)[C@H](CC(C)C)NC(=O)[C@H](CCCNC(=N)N)NC(=O)[C@H](CCC(N)=O)NC(=O)[C@@H](NC(=O)[C@H](C)NC(=O)[C@@H]1CSSC[C@H](NC(=O)[C@@H](N)CCCCNC(=O)COCCOCCNC(=O)CC[C@H](NC(=O)CCCCCCCCCCCCCCCCCCC(=O)O)C(=O)O)C(=O)N[C@@H](CC(N)=O)C(=O)N[C@@H]([C@@H](C)O)C(=O)N[C@@H](C)C(=O)N[C@@H]([C@@H](C)O)C(=O)N1)[C@@H](C)O)C(=O)N1CCC[C@H]1C(=O)N[C@@H](CO)C(=O)N[C@@H](CO)C(=O)N[C@H](C(=O)N[C@@H](CC(N)=O)C(=O)N[C@H](C(=O)NCC(=O)N1CCC[C@H]1C(=O)N[C@@H](CC(N)=O)C(=O)N[C@H](C(=O)N[C@@H](Cc1ccc(O)cc1)C(N)=O)[C@@H](C)O)C(C)C)[C@@H](C)O [Example 68] (H-K([AEEA-γGlu-C20 diacid])CNTATCATQRLAHFLRHSSPNFGAIPSSTNVGPNTY-NH2; disulfide 2-7)	≥ 200 µM	193 µM (≈ 880 µg/mL)	≥ 200 µM	≥ 200 µM	138 µM (≈ 631 µg/mL)	≥ 200 µM	≥ 200 µM	≥ 200 µM

Other lines, results leading:

solubility at 18 h [1]	solubility at 18 h [2]	solubility at 18 h [3]	solubility at 18 h [4]	solubility at 18 h [5]	solubility at 18 h [6]	solubility at 18 h [7]	solubility at 18 h [8]	Compound
≥ 200 µM	50 µM (≈ 224 µg/mL)	≥ 200 µM	≥ 200 µM	68 µM (≈ 305 µg/mL)	≥ 200 µM	≥ 200 µM	≥ 200 µM	CC[C@H](C)[C@H](NC(=O)[C@H](C)NC(=O)CNC(=O)[C@H](Cc1ccccc1)NC(=O)[C@H](CC(N)=O)NC(=O)[C@@H]1CCCN1C(=O)[C@H](CO)NC(=O)[C@H](CO)NC(=O)[C@H](Cc1c[nH]cn1)NC(=O)[C@H](CCCNC(=N)N)NC(=O)[C@H](CC(C)C)NC(=O)[C@H](Cc1ccccc1)NC(=O)[C@H](CC(N)=O)NC(=O)[C@H](C)NC(=O)[C@H](CC(C)C)NC(=O)[C@H](CCCNC(=N)N)NC(=O)[C@H](CCC(N)=O)NC(=O)[C@@H](NC(=O)[C@H](C)NC(=O)[C@@H]1CSSC[C@H](NC(=O)[C@H](CCCNC(=N)N)NC(=O)CNC(=O)CC[C@H](NC(=O)CCCCCCCCCCCCCCCCCCC(=O)O)C(=O)O)C(=O)N[C@@H](CC(N)=O)C(=O)N[C@@H]([C@@H](C)O)C(=O)N[C@@H](C)C(=O)N[C@@H]([C@@H](C)O)C(=O)N1)[C@@H](C)O)C(=O)N1CCC[C@H]1C(=O)N[C@@H](CO)C(=O)N[C@@H](CO)C(=O)N[C@H](C(=O)N[C@@H](CC(N)=O)C(=O)N[C@H](C(=O)NCC(=O)N[C@@H](CO)C(=O)N[C@@H](Cc1c[nH]cn1)C(=O)N[C@H](C(=O)N[C@@H](Cc1ccc(O)cc1)C(N)=O)[C@@H](C)O)C(C)C)[C@@H](C)O [Example 47] ({C20 diacid-γGlu}-GRCNTATCATQRLANFLRHSSPNFGAIPSSTNVGSHTY-NH2; disulfide 3-8)
≥ 200 µM	186 µM (≈ 819 µg/mL)	≥ 200 µM	≥ 200 µM	98 µM (≈ 432 µg/mL)	≥ 200 µM	≥ 200 µM	≥ 200 µM	CC[C@H](C)[C@H](NC(=O)[C@H](C)NC(=O)CNC(=O)[C@H](Cc1ccccc1)NC(=O)[C@H](CC(N)=O)NC(=O)[C@@H]1CCCN1C(=O)[C@H](CO)NC(=O)[C@H](CO)NC(=O)[C@H](Cc1c[nH]cn1)NC(=O)[C@H](CCCNC(=N)N)NC(=O)[C@H](CC(C)C)NC(=O)[C@H](Cc1ccccc1)NC(=O)[C@H](CC(N)=O)NC(=O)[C@H](C)NC(=O)[C@H](CC(C)C)NC(=O)[C@H](CCCNC(=N)N)NC(=O)[C@H](CCC(N)=O)NC(=O)[C@@H](NC(=O)[C@H](C)NC(=O)[C@@H]1CSSC[C@H](NC(=O)[C@@H](N)CCCCNC(=O)CC[C@H](NC(=O)CCCCCCCCCCCCCCCCCCC(=O)O)C(=O)O)C(=O)N[C@@H](CC(N)=O)C(=O)N[C@@H]([C@@H](C)O)C(=O)N[C@@H](C)C(=O)N[C@@H]([C@@H](C)O)C(=O)N1)[C@@H](C)O)C(=O)N1CCC[C@H]1C(=O)N[C@@H](CO)C(=O)N[C@@H](CO)C(=O)N[C@H](C(=O)N[C@@H](CC(N)=O)C(=O)N[C@H](C(=O)NCC(=O)N[C@@H](CO)C(=O)N[C@@H](Cc1c[nH]cn1)C(=O)N[C@H](C(=O)N[C@@H](Cc1ccc(O)cc1)C(N)=O)[C@@H](C)O)C(C)C)[C@@H](C)O [Example 60]
